Columns and labels:
Assay type in all cases: in vivo
oat, Avena sativa [1] = experiment: Herbicidal activity, pre-emergence test (soil spray); conditions: assessed visually twelve days after spraying, 0-9 scale, 0 = growth as untreated control, 9 = death
Description: (§1) To evaluate their herbicidal activity, compounds according to the invention were tested using as representative range of plants: maize, Zea mays (Mz); rice, Oryza sativa (R); barnyard grass, Echinochloa crusgalli (BG); oat, Avena sativa (0); linseed, Linum usitatissisum (L); mustard, Sinapsis alba (M); sugar beet, Beta vulgaris (SB) and soya bean, Glycine max (S).
(§2) The tests fall into two categories, pre-emergence and post-emergence. […] The post-emergence tests involved two types of test, viz., soil drench and foliar spray tests. In the soil drench tests the soil in which the seedling plants of the above species were growing was drenched with a liquid formulation containing a compound of the invention, and in the foliar spray tests the seedling plants were sprayed with such a formulation.
(§3) The soil used in the tests was a prepared horticultural loam.
(§4) These acetone solutions were diluted with water and the resulting formulations applied at dosage levels corresponding to 5 kg or 1 kg of active material per hectare in a volume equivalent to 600 litres per hectare in the soil spray and foliar spray test, and at a dosage of level equivalent to 10 kilograms of active material per hectare in a volume equivalent to approximately 3,000 litres per hectare in the soil drench tests.
(§5) In the pre-emexgence tests untreated sown soil and in the post-emergence tests untreated soil bearing seedling plants were used as controls.
(§6) The herbicidal effects of the test compounds were assessed visually twelve days after spraying the foliage and the soil, and thirteen days after drenching the soil and were recorded on a 0-9 scale. A rating 0 indicates growth as untreated control, a rating 9 indicates death. An increase of 1 unit on the linear scale approximates to a 10% increase in the level of effect.

maize, Zea mays [2] = experiment: as above; conditions: assessed visually twelve days after spraying, 0-9 scale, 0 = growth as untreated control, 9 = death
Description: as §1, §2, §3, §4, §5, §6

[3] = tested on: sugar beet, Beta vulgaris; experiment: as above; conditions: assessed visually twelve days after spraying, 0-9 scale, 0 = growth as untreated control, 9 = death
Description: as §1, §2, §3, §4, §5, §6

[4] = tested on: linseed, Linum usitatissisum; experiment: as above; conditions: assessed visually twelve days after spraying, 0-9 scale, 0 = growth as untreated control, 9 = death
Description: as §1, §2, §3, §4, §5, §6

soya bean, Glycine max [5] = experiment: as above; conditions: assessed visually twelve days after spraying, 0-9 scale, 0 = growth as untreated control, 9 = death
Description: as §1, §2, §3, §4, §5, §6

rice, Oryza sativa [6] = experiment: as above; conditions: assessed visually twelve days after spraying, 0-9 scale, 0 = growth as untreated control, 9 = death
Description: as §1, §2, §3, §4, §5, §6

mustard, Sinapsis alba [7] = experiment: as above; conditions: assessed visually twelve days after spraying, 0-9 scale, 0 = growth as untreated control, 9 = death
Description: as §1, §2, §3, §4, §5, §6

[8] = tested on: barnyard grass, Echinochloa crusgalli; experiment: as above; conditions: assessed visually twelve days after spraying, 0-9 scale, 0 = growth as untreated control, 9 = death
Description: as §1, §2, §3, §4, §5, §6

oat, Avena sativa [9] = experiment: Herbicidal activity, post-emergence foliar spray test; conditions: assessed visually twelve days after spraying, 0-9 scale, 0 = growth as untreated control, 9 = death
Description: as §1, §2, §3, §4, §5, §6

maize, Zea mays [10] = experiment: as above; conditions: assessed visually twelve days after spraying, 0-9 scale, 0 = growth as untreated control, 9 = death
Description: as §1, §2, §3, §4, §5, §6

[11] = tested on: sugar beet, Beta vulgaris; experiment: as above; conditions: assessed visually twelve days after spraying, 0-9 scale, 0 = growth as untreated control, 9 = death
Description: as §1, §2, §3, §4, §5, §6

[12] = tested on: linseed, Linum usitatissisum; experiment: as above; conditions: assessed visually twelve days after spraying, 0-9 scale, 0 = growth as untreated control, 9 = death
Description: as §1, §2, §3, §4, §5, §6

soya bean, Glycine max [13] = experiment: as above; conditions: assessed visually twelve days after spraying, 0-9 scale, 0 = growth as untreated control, 9 = death
Description: as §1, §2, §3, §4, §5, §6

rice, Oryza sativa [14] = experiment: as above; conditions: assessed visually twelve days after spraying, 0-9 scale, 0 = growth as untreated control, 9 = death
Description: as §1, §2, §3, §4, §5, §6

mustard, Sinapsis alba [15] = experiment: as above; conditions: assessed visually twelve days after spraying, 0-9 scale, 0 = growth as untreated control, 9 = death
Description: as §1, §2, §3, §4, §5, §6

[16] = tested on: barnyard grass, Echinochloa crusgalli; experiment: as above; conditions: assessed visually twelve days after spraying, 0-9 scale, 0 = growth as untreated control, 9 = death
Description: as §1, §2, §3, §4, §5, §6

oat, Avena sativa [17] = experiment: Herbicidal activity, post-emergence soil drench test; conditions: 10 kg/ha soil drench; assessed visually thirteen days after drenching; 0-9 scale, 0 = growth as untreated control, 9 = death
Description: as §1, §2, §3, §4, §5, §6

maize, Zea mays [18] = experiment: as above; conditions: 10 kg/ha soil drench; assessed visually thirteen days after drenching; 0-9 scale, 0 = growth as untreated control, 9 = death
Description: as §1, §2, §3, §4, §5, §6

[19] = tested on: sugar beet, Beta vulgaris; experiment: as above; conditions: 10 kg/ha soil drench; assessed visually thirteen days after drenching; 0-9 scale, 0 = growth as untreated control, 9 = death
Description: as §1, §2, §3, §4, §5, §6

[20] = tested on: linseed, Linum usitatissisum; experiment: as above; conditions: 10 kg/ha soil drench; assessed visually thirteen days after drenching; 0-9 scale, 0 = growth as untreated control, 9 = death
Description: as §1, §2, §3, §4, §5, §6

soya bean, Glycine max [21] = experiment: as above; conditions: 10 kg/ha soil drench; assessed visually thirteen days after drenching; 0-9 scale, 0 = growth as untreated control, 9 = death
Description: as §1, §2, §3, §4, §5, §6

rice, Oryza sativa [22] = experiment: as above; conditions: 10 kg/ha soil drench; assessed visually thirteen days after drenching; 0-9 scale, 0 = growth as untreated control, 9 = death
Description: as §1, §2, §3, §4, §5, §6

mustard, Sinapsis alba [23] = experiment: as above; conditions: 10 kg/ha soil drench; assessed visually thirteen days after drenching; 0-9 scale, 0 = growth as untreated control, 9 = death
Description: as §1, §2, §3, §4, §5, §6

[24] = tested on: barnyard grass, Echinochloa crusgalli; experiment: as above; conditions: 10 kg/ha soil drench; assessed visually thirteen days after drenching; 0-9 scale, 0 = growth as untreated control, 9 = death
Description: as §1, §2, §3, §4, §5, §6

Structure (SMILES)	Pre-emergence O (herbicidal effect rating) (oat, Avena sativa [1]; Dosage 1 kg/ha)	Pre-emergence O (herbicidal effect rating) (oat, Avena sativa [1]; Dosage 5 kg/ha)	Pre-emergence Mz (herbicidal effect rating) (maize, Zea mays [2]; Dosage 1 kg/ha)	Pre-emergence Mz (herbicidal effect rating) (maize, Zea mays [2]; Dosage 5 kg/ha)	Pre-emergence SB (herbicidal effect rating) ([3]; Dosage 1 kg/ha)	Pre-emergence SB (herbicidal effect rating) ([3]; Dosage 5 kg/ha)	Pre-emergence L (herbicidal effect rating) ([4]; Dosage 1 kg/ha)	Pre-emergence L (herbicidal effect rating) ([4]; Dosage 5 kg/ha)	Pre-emergence S (herbicidal effect rating) (soya bean, Glycine max [5]; Dosage 1 kg/ha)	Pre-emergence S (herbicidal effect rating) (soya bean, Glycine max [5]; Dosage 5 kg/ha)	Pre-emergence R (herbicidal effect rating) (rice, Oryza sativa [6]; Dosage 1 kg/ha)	Pre-emergence R (herbicidal effect rating) (rice, Oryza sativa [6]; Dosage 5 kg/ha)	Pre-emergence M (herbicidal effect rating) (mustard, Sinapsis alba [7]; Dosage 1 kg/ha)	Pre-emergence M (herbicidal effect rating) (mustard, Sinapsis alba [7]; Dosage 5 kg/ha)	Pre-emergence BG (herbicidal effect rating) ([8]; Dosage 1 kg/ha)	Pre-emergence BG (herbicidal effect rating) ([8]; Dosage 5 kg/ha)	Foliar spray O (herbicidal effect rating) (oat, Avena sativa [9]; Dosage 1 kg/ha)	Foliar spray O (herbicidal effect rating) (oat, Avena sativa [9]; Dosage 5 kg/ha)	Foliar spray Mz (herbicidal effect rating) (maize, Zea mays [10]; Dosage 1 kg/ha)	Foliar spray Mz (herbicidal effect rating) (maize, Zea mays [10]; Dosage 5 kg/ha)	also measured
COC(=O)c1cc2cc3c(cc2nc1C1=NC(C)(C(C)C)C(=O)N1C(C)=O)OCO3 (stereo not drawn) [Example 3, Methyl-2-(1-acetyl-4-isopropyl-4-methyl-5-oxo-2-imidazolin-2-yl)-[1,3]-dioxolo[4,5-g] quinoline-3-carboxylate]	4	6	4	8	4	8	5	8	0	0	2	5	2	4	4	7	3	5	4	6	Foliar spray SB (herbicidal effect rating) ([11]; Dosage 1 kg/ha): 5; Foliar spray SB (herbicidal effect rating) ([11]; Dosage 5 kg/ha): 7; Foliar spray L (herbicidal effect rating) ([12]; Dosage 1 kg/ha): 5; Foliar spray L (herbicidal effect rating) ([12]; Dosage 5 kg/ha): 6; Foliar spray S (herbicidal effect rating) (soya bean, Glycine max [13]; Dosage 1 kg/ha): 1; Foliar spray S (herbicidal effect rating) (soya bean, Glycine max [13]; Dosage 5 kg/ha): 3; Foliar spray R (herbicidal effect rating) (rice, Oryza sativa [14]; Dosage 1 kg/ha): 2; Foliar spray R (herbicidal effect rating) (rice, Oryza sativa [14]; Dosage 5 kg/ha): 5; Foliar spray M (herbicidal effect rating) (mustard, Sinapsis alba [15]; Dosage 1 kg/ha): 3; Foliar spray M (herbicidal effect rating) (mustard, Sinapsis alba [15]; Dosage 5 kg/ha): 6; Foliar spray BG (herbicidal effect rating) ([16]; Dosage 1 kg/ha): 5; Foliar spray BG (herbicidal effect rating) ([16]; Dosage 5 kg/ha): 7; Soil drench 10/kg/ha O (herbicidal effect rating) (oat, Avena sativa [17]): 6; Soil drench 10/kg/ha Mz (herbicidal effect rating) (maize, Zea mays [18]): 5; Soil drench 10/kg/ha SB (herbicidal effect rating) [19]: 8; Soil drench 10/kg/ha L (herbicidal effect rating) [20]: 6; Soil drench 10/kg/ha S (herbicidal effect rating) (soya bean, Glycine max [21]): 0; Soil drench 10/kg/ha R (herbicidal effect rating) (rice, Oryza sativa [22]): 5; Soil drench 10/kg/ha M (herbicidal effect rating) (mustard, Sinapsis alba [23]): 7; Soil drench 10/kg/ha BG (herbicidal effect rating) [24]: 7
CC(C)C1(C)NC(c2cc3c(cc2C(=O)O)OCO3)=NC1=O (stereo not drawn) [Example 7, 2-(5-isopropyl-5-methyl-4-oxo-2-imidazolin-2-yl)-[1,3]-dioxolo [4,5-d]benzoic acid]	0	5	1	6	7	8	3	7	0	1	8	9	4	7	3	7	1	2	2	3	Foliar spray SB (herbicidal effect rating) ([11]; Dosage 1 kg/ha): 6; Foliar spray SB (herbicidal effect rating) ([11]; Dosage 5 kg/ha): 7; Foliar spray L (herbicidal effect rating) ([12]; Dosage 1 kg/ha): 3; Foliar spray L (herbicidal effect rating) ([12]; Dosage 5 kg/ha): 4; Foliar spray S (herbicidal effect rating) (soya bean, Glycine max [13]; Dosage 1 kg/ha): 0; Foliar spray S (herbicidal effect rating) (soya bean, Glycine max [13]; Dosage 5 kg/ha): 4; Foliar spray R (herbicidal effect rating) (rice, Oryza sativa [14]; Dosage 1 kg/ha): 2; Foliar spray R (herbicidal effect rating) (rice, Oryza sativa [14]; Dosage 5 kg/ha): 3; Foliar spray M (herbicidal effect rating) (mustard, Sinapsis alba [15]; Dosage 1 kg/ha): 7; Foliar spray M (herbicidal effect rating) (mustard, Sinapsis alba [15]; Dosage 5 kg/ha): 7; Foliar spray BG (herbicidal effect rating) ([16]; Dosage 1 kg/ha): 5; Foliar spray BG (herbicidal effect rating) ([16]; Dosage 5 kg/ha): 6
